Data on one substance can be found in patent US20220193103A1, “NANO-PUERARIN REGULATES TUMOR MICROENVIRONMENT AND FACILITATES CHEMO- AND IMMUNOTHERAPY IN MURINE TRIPLE NEGATIVE BREAST CANCER MODEL” (The University of North Carolina at Chapel Hill, priority 2019, published 2022).

Data set [1] concerns TGF-β activated NIH3T3 cells. The data set is described as follows: ROS inhibition in TGF-β activated NIH3T3 cells (Fluorometric Hydrogen Peroxide Assay Kit). The class given is cell-based, mouse. Here is the method:
Based on literature and Chinese medicine pharmacology, 10 anti-fibrosis TCMs were selected to screen the ROS inhibition effects on TGF-β activated NIH3T3 cells. NIH3T3 cells were pre-stimulated with 10 ng/mL TGF-β for 24 h and 2×10^3 cells/well were seeded in a 96-well black plate. Then, the cells were treated with different TCMs. After these drugs were added, the cells were further cultured for 48 h. Then the concentration of ROS was determined with the Fluorometric Hydrogen Peroxide Assay Kit according to the manufacturer's instructions. The fluorescence intensity measured by using a fluorescence microplate reader (FLx800, Biotek Instrument Inc., Winooski, VT, USA) at excitation and emission wavelengths of 485 and 530 nm, respectively.

The subject of a further data set is NIH3T3 cells. It is filed as cell-based, mouse. The following applies: different concentrations, within 48 hours. The method, then:
1.4.4. Cytotoxicity of Puerarin. The addition of puerarin and nanoPue to NIH3T3 cells was the same as the ROS assay. After 48 h of incubation, the culture medium was discarded and the cell layers were washed twice with PBS. Then 100 μL culture medium and 10 μL MTT solution (5 mg/mL) were added and incubated for 4 h at 37° C. After the supernatant was removed, 150 μL DMSO was added and OD value was determined at 492 nm by using a multidetection microplate reader (Plate CHAMELEONTM V-Hidex). The cell viability rate of each concentration was calculated according to formula (1).
Cell viability %=(ODdosing group/ODcontrol group)×100% (1)

The conditions of data set [2]: literature statement; cited from earlier work.

Puerarin: in data set [1] (TGF-β activated NIH3T3 cells, different concentrations), the “ROS inhibition activity at different concentrations” value is recorded as “concentration-dependent ROS downregulation pattern”. Also, the “amount of ROS in TGF-β activated NIH3T3 cells” value in data set [1] (screen of ten natural compounds, 15 μg/mL, 48 h, compared with other natural compounds) was “significantly reduced”. Moreover, the “cytotoxicity in NIH3T3 cells (cell viability, MTT)” value in the data set on NIH3T3 cells was “no cytotoxicity”. Moreover, the solubility entry in data set [2] is reported as “poorly soluble”.
